Literature values as cited in publication PMC10675484, “Characterization and Pharmacokinetic Assessment of a New Berberine Formulation with Enhanced Absorption In Vitro and in Human Volunteers” (Pharmaceutics, 2023).
Read-outs that look alike come from different tables or passages of the source. One block for each compound: values may come before it.

What was measured:
[1] = not given; remark: listed apart in the source
[2] = not given; remark: listed apart in the source
[3] = set-up: method as in PMID 26851175; conditions: orally administered berberine
[4] = 500 mg berberine, within a 2 h period
[5] = 20 study participants, oral 400 mg of berberine
[6] = human volunteers, doses similar to the current study

Biopharmaceutical Classification System class: class III
Solubility in water: approximately 1.3 mg/mL
Structure (SMILES): COc1ccc2cc3[n+](cc2c1OC)CCc1cc2c(cc1-3)OCO2 [BCl]

Structure (SMILES): COc1ccc2c(c1OC)CN1CCc3cc4c(cc3C1=C2)OCO4 [DHB, dihydroberberine]
Glucose and insulin response ([1]; study participants, during the study period): no significant changes

Absolute bioavailability ([2]; oral administration in rats, ref 23, 24): < 1%
Absolute bioavailability ([2]; oral administration in rats, ref 24): 0.68%
Absorption rate in the gut ([2]; oral administration in rats, ref 25): approx. 33.6%
AUC in the liver relative to plasma ([2]; orally administered berberine 200 mg/kg): 10 fold
AUC (berberine) [1, 4]: 42.3 ± 17.6 ng·h/mL
Cmax (berberine) [1, 4]: 0.4 ± 0.17 ng/mL
Cmax ([1]; 500 mg of berberine in 10 volunteers): 0.07 nM
Mean AUC0–∞ [1, 5]: ~9.2 ng·h/mL
Mean Cmax [1, 5]: approx. 0.4 ng/mL
Fraction of orally administered dose entering the systemic circulation ([1]; human pharmacokinetic studies): ≤ 5%
AUC (total berberine) [1, 6]: 1.217 ± 0.129 ng·h/mL
Cmax (total berberine) [1, 6]: 0.31688 ± 0.0266 ng/mL
Elimination half-life ([1]; oral administration in humans): 2.94 ± 0.14 h
Fraction metabolized in the enterocytes [3]: approx. 43.5%
Structure (SMILES): COc1ccc2cc3[n+](cc2c1OC)CCc1cc2c(cc1-3)OCO2 [berberine, 2,3-methylenedioxy-9,10-dimethoxy-protoberberine]
